The text below walks through data of patent US7538072B2, “Stem/leaf desiccant” (Sumitomo Chemical Company, Limited, priority 2001, dated 2009).

One data set concerns potato plants. Nature of the data set: Field test of desiccant effect on potato plants (foliar spray before harvest). It is filed as in vivo. The note with it: application amount 10 g/ha; emulsifiable concentrate diluted with water containing 1% (v/v) crop oil concentrate, sprayed at the time of foliage turning yellow; examined 14 day after treatment; average of 3 sections. An excerpt: Seed potatoes were planted on a field and grown. At the time of the foliage turning yellow, 2.5 parts of each of compounds a-5 and a-6, 10 parts of Sorpol 3890 (Toho Chemical Industry Co., Ltd.), and 87.5 parts of SOLVESSO 200 (Exxon Mobile Chemical Company) were well mixed to give an emulsifiable concentrate for each compound, diluted at a prescribed dose with water containing 1% (v/v) crop oil concentrate (COC), and the dilution was uniformly sprayed to the plants. One section of the treated field are 2.1×15.2 m in area, and the potato plants on 14 day after the treatment were examined for the desiccant effect. In the table, the desiccation effect was evaluated with following criteria.
1: The desiccated area of foliage is 0 to 29%
2: The desiccated area of foliage is 30 to 69%
3: The desiccated area of foliage is 70 to 89%
4: The desiccated area of foliage is 90 to 99%
5: The desiccated area of foliage is 100%
The treatment was done in 3 sections, the result was indicated with an average of the 3 sections.

With `COC(=O)COc1ccccc1Oc1cc(-n2c(=O)cc(C(F)(F)F)n(C)c2=O)c(F)cc1Cl` [Compound a-5, methyl [2-{2-chloro-4-fluoro-5-[3-methyl-2,6-dioxo-4-(trifluoromethyl)-1,2,3,6-tetrahydropyrimidin-1-yl]phenoxy}phenoxy]acetate], the Desiccation effect in the data set on potato plants is on record as 5 (The desiccated area of foliage is 100%).

Regarding `COC(=O)COc1ncccc1Oc1cc(-n2c(=O)cc(C(F)(F)F)n(C)c2=O)c(F)cc1Cl` [Compound a-6, methyl [3-{2-chloro-4-fluoro-5-[3-methyl-2,6-dioxo-4-(trifluoromethyl)-1,2,3,6-tetrahydropyrimidin-1-yl]phenoxy}-2-pyridyloxy]acetate], the melting point (as a rule, the temperature of the solid-liquid transition) was 52.2 °C. The Desiccation effect in the data set on potato plants is recorded as 5 (The desiccated area of foliage is 100%).
